Assay results taken from patent publication US9701689B2, “Substituted pyridines and pyridazines as CCR10 receptor inhibitors” (KYOWA HAKKO KIRIN CO., LTD., priority 2012, dated 2017).

These compounds were tested against T1, human CCR10 (Homo sapiens, UniProt P46092) (assay: CCR10 antagonistic effect: calcium assay of human CCR10 (CTACK-induced increase of intracellular calcium in hCCR10G16 cells)). Conditions: at a concentration of not more than 1000 nmol/L; human CCR10-expressing hCCR10G16 cells, 300 nmol/L CTACK added; read-out: inhibition of increase in the calcium ion concentration.
T1 construct: expressed in transfected cells; host or cells: KJMGER8 cells (Namalwa cell-derived line), beta-estradiol-induced; hCCR10G16 cells
T1 sequence (P46092 1-362): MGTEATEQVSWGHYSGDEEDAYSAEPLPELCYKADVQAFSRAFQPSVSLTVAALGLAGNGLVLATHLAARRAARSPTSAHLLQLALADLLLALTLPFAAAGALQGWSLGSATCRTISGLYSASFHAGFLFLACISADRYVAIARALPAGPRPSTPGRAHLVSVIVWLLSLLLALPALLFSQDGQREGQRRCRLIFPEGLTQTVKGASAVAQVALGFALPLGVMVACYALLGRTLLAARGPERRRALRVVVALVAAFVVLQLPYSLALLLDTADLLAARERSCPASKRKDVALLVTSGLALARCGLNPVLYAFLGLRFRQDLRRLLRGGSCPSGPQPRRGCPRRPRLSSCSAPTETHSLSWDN
Type: cell-based
How it was run: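 Inhibition of CTACK-evoked calcium flux (max minus min Fluo-3 fluorescence over ~5 min, FDSS) was calculated against control in β-estradiol-induced human CCR10/Gα16 KJMGER8 cells, after 30 min compound preincubation at 37 °C; CTACK added from a 300 nmol/L solution.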

Inhibition at up to 1 µM, ≥ 50%:
NS(=O)(=O)c1cc(Nc2cccc(F)c2Cl)c(C(=O)N2CCC(c3ccc(F)cc3)CC2)cn1 [Compound 74, 4-(2-chloro-3-fluorophenylamino)-5-[4-(4-fluorophenyl)piperidine-1-carbonyl]pyridine-2-sulfonamide]
Cc1ccc(Nc2c(C(=O)N3CCC(c4ccc(F)cc4)CC3)cnc(S(N)(=O)=O)c2Cl)cc1Cl [Compound 181, 3-chloro-4-(3-chloro-4-methylphenylamino)-5-[4-(4-fluorophenyl)piperidine-1-carbonyl]pyridine-2-sulfonamide]
COc1ccc(Nc2cc(S(N)(=O)=O)ncc2C(=O)N2CCC(c3ccc(F)cc3)CC2)cc1F [Compound 86, 4-(3-fluoro-4-methoxyphenylamino)-5-[4-(4-fluorophenyl)piperidine-1-carbonyl]pyridine-2-sulfonamide]
NS(=O)(=O)c1cc(Nc2ccccc2F)c(C(=O)N2CCC(c3ccc(F)cc3)CC2)cn1 [Compound 102, 5-[4-(4-fluorophenyl)piperidine-1-carbonyl]-4-(2-fluorophenylamino)pyridine-2-sulfonamide]
NS(=O)(=O)c1cc(Nc2ccc(Br)cc2Cl)c(C(=O)N2CCC(c3ccc(F)cc3)CC2)cn1 [Compound 90, 4-(4-bromo-2-chlorophenylamino)-5-[4-(4-fluorophenyl)piperidine-1-carbonyl]pyridine-2-sulfonamide]
CCc1c(S(=O)(=O)Nc2ccon2)ncc(C(=O)N2CCC(c3ccc(F)cc3)CC2)c1Nc1cccc(F)c1C [Compound 294, 3-ethyl-4-(3-fluoro-2-methylphenylamino)-5-[4-(4-fluorophenyl)piperidine-1-carbonyl]-N-(isoxazol-3-yl)pyridine-2-sulfonamide]
Cc1cc(NS(=O)(=O)c2cc(Nc3ccc(F)cc3C)c(C(=O)N3CCC(c4ccc(F)cc4)CC3)cn2)on1 [Compound 12, 4-(4-fluoro-2-methylphenylamino)-5-[4-(4-fluorophenyl)piperidine-1-carbonyl]-N-(3-methylisoxazol-5-yl)pyridine-2-sulfonamide]
Cc1cc(F)ccc1Nc1c(C(=O)N2CCC(c3ccc(F)cc3)CC2)cnc(S(=O)(=O)N2C(=O)OCC2(C)C)c1Cl [Compound 187, 3-{3-chloro-4-(4-fluoro-2-methylphenylamino)-5-[4-(4-fluorophenyl)piperidine-1-carbonyl]pyridin-2-ylsulfonyl}-4,4-dimethyloxazolidin-2-one]
Cc1cc(S(C)(=O)=O)ccc1Nc1c(C(=O)N2CCC(c3ccc(F)cc3)CC2)cnc(S(N)(=O)=O)c1Cl [Compound 329, 3-chloro-5-[4-(4-fluorophenyl)piperidine-1-carbonyl]-4-[2-methyl-4-(methylsulfonyl)phenylamino]pyridine-2-sulfonamide]
NS(=O)(=O)c1ncc(C(=O)N2CCC(c3ccc(F)cc3)CC2)c(NC2CCCCC2)c1Cl [Compound 45, 3-chloro-4-(cyclohexylamino)-5-[4-(4-fluorophenyl)piperidine-1-carbonyl]pyridine-2-sulfonamide]
Cc1cc(F)ccc1Nc1cc(S(=O)(=O)Nc2c(C)nn(C)c2C)ncc1C(=O)N1CCC(c2ccc(F)cc2)CC1 [Compound 152, 4-(4-fluoro-2-methylphenylamino)-5-[4-(4-fluorophenyl)piperidine-1-carbonyl]-N-(1,3,5-trimethyl-1H-pyrazol-4-yl)pyridine-2-sulfonamide]
NS(=O)(=O)c1ncc(C(=O)N2CCC3(CC2)COc2ccccc23)c(NC2(c3ccccc3)CC2)c1Cl [Compound 297, 3-chloro-4-(1-phenylcyclopropylamino)-5-(2H-spiro[benzofuran-3,4′-piperidin]-1′-ylcarbonyl)pyridine-2-sulfonamide]
NS(=O)(=O)c1ncc(C(=O)N2CCC(c3ccc(F)cc3)CC2)c(Nc2cccc(Br)c2)c1Cl [Compound 319, 4-(3-bromophenylamino)-3-chloro-5-[4-(4-fluorophenyl)piperidine-1-carbonyl]pyridine-2-sulfonamide]
Cc1cc(F)ccc1Nc1c(C(=O)N2CCC(c3ccc(F)cc3)CC2)cnc(S(=O)(=O)Nc2ccccc2)c1Cl [Compound 191, 3-chloro-4-(4-fluoro-2-methylphenylamino)-5-[4-(4-fluorophenyl)piperidine-1-carbonyl]-N-phenylpyridine-2-sulfonamide]
Cc1cc(NS(=O)(=O)c2ncc(C(=O)N3CCC(c4ccc(F)cc4)CC3)c(Nc3ccc(F)c(F)c3)c2C)sn1 [Compound 301, 4-(3,4-difluorophenylamino)-5-[4-(4-fluorophenyl)piperidine-1-carbonyl]-3-methyl-N-(3-methylisothiazol-5-yl)pyridine-2-sulfonamide]
Cc1cc(F)ccc1Nc1cc(S(N)(=O)=O)ncc1C(=O)N1CCC(c2ccc(F)cc2)CC1 [Compound 2, 4-(4-fluoro-2-methylphenylamino)-5-[4-(4-fluorophenyl)piperidine-1-carbonyl]pyridine-2-sulfonamide]
Cc1c(S(=O)(=O)Nc2ccon2)ncc(C(=O)N2CCC(c3ccc(F)cc3)CC2)c1Nc1ccc(Br)cc1 [Compound 260, 4-(4-bromophenylamino)-5-[4-(4-fluorophenyl)piperidine-1-carbonyl]-N-(isoxazol-3-yl)-3-methylpyridine-2-sulfonamide]
Cc1ccc(C(F)(F)F)cc1Nc1c(C(=O)N2CCC(c3ccc(F)cc3)CC2)cnc(S(N)(=O)=O)c1Cl [Compound 311, 3-chloro-5-[4-(4-fluorophenyl)piperidine-1-carbonyl]-4-[2-methyl-5-(trifluoromethyl)phenylamino]pyridine-2-sulfonamide]
CC(=O)NC1CCN(S(=O)(=O)c2cc(Nc3ccc(F)cc3C)c(C(=O)N3CCC(c4ccc(F)cc4)CC3)cn2)C1 (stereo not drawn) [Compound 7, N-{1-{4-(4-fluoro-2-methylphenylamino)-5-[4-(4-fluorophenyl)piperidine-1-carbonyl]pyridin-2-ylsulfonyl}pyrrolidin-3-yl}acetamide]
Cc1c(Nc2cc(S(N)(=O)=O)ncc2C(=O)N2CCC(c3ccc(F)cc3)CC2)ccc(Cl)c1F [Compound 59, 4-(4-chloro-3-fluoro-2-methylphenylamino)-5-[4-(4-fluorophenyl)piperidine-1-carbonyl]pyridine-2-sulfonamide]
CCc1c(S(=O)(=O)Nc2ccon2)ncc(C(=O)N2CCC(c3ccc(F)cc3)CC2)c1Nc1ccccc1C [Compound 287, 3-ethyl-5-[4-(4-fluorophenyl)piperidine-1-carbonyl]-N-(isoxazol-3-yl)-4-(o-tolylamino)pyridine-2-sulfonamide]
NS(=O)(=O)c1ncc(C(=O)N2CCC(c3ccc(F)cc3)CC2)c(Nc2ccc(Cl)cc2)c1Cl [Compound 302, 3-chloro-4-(4-chlorophenylamino)-5-[4-(4-fluorophenyl)piperidine-1-carbonyl]pyridine-2-sulfonamide]
NS(=O)(=O)c1cc(Nc2ccc(Cl)c(F)c2Cl)c(C(=O)N2CCC(c3ccc(F)cc3)CC2)cn1 [Compound 75, 4-(2,4-dichloro-3-fluorophenylamino)-5-[4-(4-fluorophenyl)piperidine-1-carbonyl]pyridine-2-sulfonamide]
Cc1c(S(=O)(=O)Nc2ccon2)ncc(C(=O)N2CCC(c3ccc(F)cc3)CC2)c1Nc1ccc(Cl)cc1Cl [Compound 280, 4-(2,4-dichlorophenylamino)-5-[4-(4-fluorophenyl)piperidine-1-carbonyl]-N-(isoxazol-3-yl)-3-methylpyridine-2-sulfonamide]
Cc1cccc(Nc2c(C(=O)N3CCC4(CC3)CNc3ccccc3C4)cnc(S(N)(=O)=O)c2Cl)c1 [Compound 218, 3-chloro-5-[2′,4′-dihydro-1′H-spiro[piperidine-4,3′-quinoline]-1-ylcarbonyl]-4-(m-tolylamino)pyridine-2-sulfonamide]
Cc1c(Nc2cc(S(N)(=O)=O)ncc2C(=O)N2CCC(c3ccc(F)cc3)CC2)cccc1C(F)(F)F [Compound 61, 5-[4-(4-fluorophenyl)piperidine-1-carbonyl]-4-[2-methyl-3-(trifluoromethyl)phenylamino]pyridine-2-sulfonamide]
Cc1c(S(=O)(=O)Nc2ccon2)ncc(C(=O)N2CCC(c3ccc(F)cc3)CC2)c1NCc1ccccn1 [Compound 223, 5-[4-(4-fluorophenyl)piperidine-1-carbonyl]-N-(isoxazol-3-yl)-3-methyl-4-(pyridin-2-ylmethylamino)pyridine-2-sulfonamide]
